{"source": "paper PMC11874007", "about": "“Switching Roles—Exploring Concentration-Dependent Agonistic versus Antagonistic Behavior of Integrin Ligands” (Journal of Medicinal Chemistry, 2025)", "key": {"human α5β1-integrin": {"molecular_target": "T1, human α5β1-integrin (Homo sapiens, UniProt P05556+P08648)", "T1 construct": "purchased R&D 3230-A5-050", "assay": "ELISA-type solid-phase binding assay: soluble α5β1 competing for immobilized fibronectin", "description": "Prior to the biological evaluation of the ligands, their specificity and subtype-selective affinity was analyzed by an ELISA (enzyme-linked immune sorbent assay)-type solid-phase ligand binding assay[59] by measuring the competitive binding of soluble purified integrins in the presence of the respective ligands to plate-immobilized purified ECM proteins, as described in Experimental Section: vitronectin (for αvβ3-directed ligands), fibronectin (for α5β1-directed ligands), or the latency-associated peptide (LAP) of transforming growth factor-β (TGF-β) (for αvβ6-directed ligands). Then, we determined whether Cy5.5 conjugation of ligands led to altered ligand binding affinities and integrin subtype selectivity compared to the unlabeled compounds. In the following, we describe in detail the alterations detected.\n(3) 2.0 μg/mL mouse-anti-human CD51/61 (BD Biosciences, Franklin Lakes, New Jersey, USA; #555504). (4) 2.0 μg/mL anti-mouse IgG-POD (Sigma-Aldrich, #A9044-2ML). Integrin αvβ6: (1) 0.4 μg/mL LAP (TGF-β) (R&D, #246-LP-025), (2) 0.5 μg/mL human αvβ6 (R&D, #3817-AV-050), (3) 1:500 dilution mouse-anti-human αv (MAB1978) (Merck Millipore, #MAB1978), (4) 2.0 μg/mL anti-mouse IgG-POD (Sigma-Aldrich, #A9044-2ML). Integrin α5β1: (1) 0.5 μg/mL human fibronectin (Sigma-Aldrich, #F0895-1MG), (2) 2.0 μg/mL human α5β1 (R&D, 3230-A5-050), (3) 1.0 μg/mL mouse-anti-human CD49e (BD Biosciences, #555651), (4) 2.0 μg/mL anti-mouse IgG-POD (Sigma-Aldrich, #A9044-2 ML). For Western blot analysis, the following antibodies were used: (p-)p44/42^(erk-1/2) (1) 1:300 dilution of rabbit-anti-human p44/42^(erk-1/2) antibody (Cell Signaling Technology, Frankfurt, Germany, #9102) in 3% (w/v) bovine serum albumin (BSA)/TBS-T, (2) 1:5,000 dilution goat-anti-rabbit horseradish-conjugated secondary antibody in 1% (w/v) BSA/TBS-T. Phospho-p44/42^(erk-1/2): (1) 1:200 dilution rabbit-anti-human p44/42^(erk-1/2) (Thr202/Tyr204) antibody (Cell Signaling Technology, #9101) in 3% (w/v) BSA/TBS-T, (2) 1:5,000 dilution goat-anti-rabbit horseradish-conjugated secondary antibody in 1% (w/v) BSA/TBS-T. FAK: (1) 1:300 dilution mouse-anti-human FAK antibody (Cell Signaling Technology, #9102) in 3% (w/v) BSA/TBS-T, (2) 1:5,000 dilution goat-anti-mouse horseradish-conjugated secondary antibody in 1% (w/v) BSA/TBS-T. Phospho-FAK: (1) 1:300 dilution mouse-anti-human p-FAK antibody (Cell Signaling Technology) in 3% (w/v) BSA/TBS-T, (2) 1:5,000 dilution goat-antimouse horseradish-conjugated secondary antibody in 1% (w/v) BSA/TBS-T. Differences in blotting efficiency and protein loading were normalized by using a primary antibody against glyceraldehyde-3-phosphate dehydrogenase (GAPDH, 1:10,000 dilution in 1% (w/v) BSA/TBS-T, at RT for 45 min (Millipore, Schwalbach, Germany) and a secondary horseradish-conjugated goat-anti-mouse antibody (1:10,000 dilution in 1% (w/v) BSA/TBS-T, 40 min at RT).\nThe integrin binding assay was done to assess the specificity and subtype-selective affinity of L1–L5 and their respective Cy5.5-conjugated ligands by using isolated and purified integrins in cell-free ligand binding assays, as previously published.[59]Table 2 summarizes the used ECM ligands, integrins, and antibodies. In brief, flat-bottom 96-well plates were coated overnight at 4 °C with the natural ECM integrin ligands, vitronectin (for αvβ3-directed ligands), fibronectin (for α5β1-directed ligands), or LAP of TGF-β1 (for αvβ6-directed ligands) (100 μL/well in buffer containing 15 mM Na2CO3, 35 mM NaHCO3, pH 9.6). Subsequently, each well was washed in PBS, 0.01% (v/v) Tween 20, 137 mM NaCl, 2.7 mM KCl, 10 mM Na2HPO4, 2 mM KH2PO4, pH 7.4 (PBS-T), and blocked for unspecific binding events for 1 h at RT in 20 mM Tris–HCl, pH 7.5, 150 mM NaCl, 1 mM CaCl2, 1 mM MgCl2, 1 mM MnCl2, and 1% (w/v) BSA. Meanwhile, dilution series of the different integrin ligands and the internal standards were prepared, ranging from 20 μM to 256 pM in 1:5 dilution steps. […]"}, "human αvβ6-integrin [1]": {"molecular_target": "T2, human αvβ6-integrin (Homo sapiens, UniProt P06756+P18564)", "T2 construct": "purchased R&D 3817-AV-050", "assay": "ELISA-type solid-phase binding assay: soluble αvβ6 competing for immobilized LAP (TGF-β)", "conditions": "competitive ELISA-type assay, referenced to internal standard RTDLDSLRT"}, "human αvβ3-integrin": {"molecular_target": "T3, human αvβ3-integrin (Homo sapiens, UniProt P05106+P06756)", "T3 construct": "purchased R&D 3050-AV-050", "assay": "ELISA-type solid-phase binding assay: soluble αvβ3 competing for immobilized vitronectin", "conditions": "competitive ELISA-type assay, referenced to internal standard cilengitide (L2)"}, "[2]": {"molecular_target": "human α5β1-integrin (human) (UniProt P08648)", "assay": "ELISA; competitive ELISA-type solid-phase assay: human fibronectin (0.5 μg/mL) coated on the plate overnight at 4 °C, soluble human α5β1 (2.0 μg/mL) added with a dilution series of the ligand (20 μM to 256 pM), 1 h at RT; blocked in 20 mM Tris-HCl pH 7.5, 150 mM NaCl, 1 mM CaCl2, 1 mM MgCl2, 1 mM MnCl2, 1% BSA; bound integrin detected with anti-CD49e; IC50 referenced to cilengitide"}, "αvβ6- OV-MZ-6 cells": {"system": "αvβ6- OV-MZ-6 cells", "assay": "Cellular uptake of Cy5.5-labeled ligands, OV-MZ-6 control cells", "format": "cell-based", "conditions": "1 μM Cy5.5-labeled ligand", "description": "(§1) For intracellular drug delivery, integrin ligands designed as drug-conjugated vehicles have to be easily and selectively internalized by tumor cells (over)expressing the respective targeted integrin subtype. […] It should be noted here that HN, OV-MZ-6, and RKO cells also express low αvβ3 expression levels.\n(§2) Microchamber cell culture slides were coated with fibronectin (2 μg/mL), followed by cell seeding at a density of 50,000 cells/well. After 24 h of cultivation, cells were treated with integrin ligands L1-Cy5.5 to L5-Cy5.5 (1 μM in 0.01% (w/v) CaCl2 and 0.1% (w/v) BSA in PBS; 250 μL/well) for 3, 30, 60, or 300 min at 37 °C. The cells were washed in PBS/0.01% (w/v) CaCl2 (6 × 800 μL) and the fluorescence signal intensity recorded using the LSM 700 microscope (Zeiss, Jena, Germany). CellMask Green Plasma Membrane Stain was used to stain the cell membrane; nuclei were stained with Hoechst 33342."}, "HN cells (αvβ6+)": {"system": "HN cells (αvβ6+)", "assay": "Time-dependent cellular uptake of Cy5.5-labeled ligands, HN cells", "format": "cell-based", "conditions": "1 μM, within 3 min", "from_the_text": "as §1\n(§3) Figure 7 Cellular uptake of Cy5.5-labeled integrin ligands. […] Nuclei were costained with Hoechst 33342 (blue signal) and cell membranes with CellMask Green (green signal). Merge of stains (yellow signal) indicated colocalization of ligands at the cell membrane. Scale bar: 50 μm.\nas §2"}, "[3]": {"system": "M21 (αvβ3+), HN (αvβ6+), RKO (α5β1+) cells", "assay": "Time-dependent cellular uptake of Cy5.5-labeled ligands in cells overexpressing the targeted integrin", "format": "cell-based", "conditions": "state within 30 min, Cy5.5-conjugated ligands, target integrin-expressing cells", "from_the_text": "as §1, §3, §2"}, "[4]": {"molecular_target": "human α5β1-integrin (human) (UniProt P08648)"}, "human αvβ6-integrin [5]": {"molecular_target": "T4, human αvβ6-integrin (human, UniProt P06756 31-1048; P18564 22-709)", "T4 construct": "integrin alpha-V, human, chain of the soluble purified αvβ6 heterodimer; integrin beta-6, human, chain of the soluble purified αvβ6 heterodimer; also called integrin αvβ6; source: bought: R&D, #3817-AV-050", "assay": "ELISA; competitive ELISA-type solid-phase assay: LAP of TGF-β1 (0.4 μg/mL) coated on the plate overnight at 4 °C, soluble human αvβ6 (0.5 μg/mL) added with a dilution series of the ligand (20 μM to 256 pM), 1 h at RT; blocked in 20 mM Tris-HCl pH 7.5, 150 mM NaCl, 1 mM CaCl2, 1 mM MgCl2, 1 mM MnCl2, 1% BSA; bound integrin detected with anti-αv; IC50 referenced to …", "conditions": "both partners purified"}, "[6]": {"conditions": "competitive ELISA-type assay, referenced to internal standard cilengitide (L2)"}}, "note": "Like-named read-outs stand apart in the source and are kept apart here. Non-standard residues stand in square brackets, D forms with d. Chg = N[C@H](C(=O)O)C1CCCCC1; NMeV = CN[C@H](C(=O)O)C(C)C", "data": [{"molecule": "Cc1cc(OCCCNC(=O)CCCCCNC(=O)CCCCC[N+]2=C(/C=C/C=C/C=C3/N(C)c4ccc5ccccc5c4C3(C)C)C(C)(C)c3c2ccc2ccccc32)cc(C)c1C(=O)N[C@@H](CNC(=O)CNC(=O)c1cccc(NC(=N)N)c1)C(=O)O", "note": "[L5-Cy5.5]", "values": [{"measurement": "IC50", "setting": "human α5β1-integrin; [6]", "value": "4.69 ± 1", "unit": "nM"}, {"measurement": "IC50", "setting": "human αvβ6-integrin [1]", "value": "154 ± 136", "unit": "nM"}, {"measurement": "IC50", "setting": "human αvβ3-integrin", "value": "> 1000", "unit": "nM"}]}, {"molecule": "L4-Cy5.5, the Cy5.5 conjugate of c(RGD-Chg-isoE)-CONH2 (L4) (peptide)", "values": [{"measurement": "IC50", "setting": "[2]", "value": "> 1000", "unit": "nM"}]}, {"molecule": "CC(C)C[C@@H]1NC(=O)[C@H](CC(=O)O)NC(=O)CNC(=O)[C@H](CCCNC(=N)N)NC(=O)[C@H](Cc2ccccc2)NC(=O)[C@H](CCCCNC(=O)CCCCCNC(=O)CCCCC[N+]2=C(/C=C/C=C/C=C3/N(C)c4ccc5ccccc5c4C3(C)C)C(C)(C)c3c2ccc2ccccc32)N(C)C(=O)[C@H]2CCCN2C(=O)[C@H](Cc2ccccc2)NC(=O)[C@H](C)NC1=O", "note": "[L3-Cy5.5]", "values": [{"measurement": "Binding / intracellular uptake in control cells", "setting": "αvβ6- OV-MZ-6 cells", "value": "did not bind"}, {"measurement": "IC50", "setting": "human α5β1-integrin; [6]", "value": "> 1000", "unit": "nM"}, {"measurement": "Localization of Cy5.5-labeled ligand", "setting": "HN cells (αvβ6+)", "value": "already intracellularly visible"}]}, {"molecule": "L3-Cy5.5, the Cy5.5 conjugate of c(FRGDLAFp(NMe)K) (L3) (peptide)", "values": [{"measurement": "IC50", "setting": "[2]", "value": "> 1000", "unit": "nM"}]}, {"molecule": "c(RGD-Chg-isoE)-CONH2 [L4]", "values": [{"measurement": "Endocytosis of Cy5.5-conjugated ligand", "setting": "[3]", "value": "already completed"}]}, {"molecule": "CN1/C(=C/C=C/C=C/C2=[N+](CCCCCC(=O)NCCCCCC(=O)N[C@@H](CCCCNC(=O)[C@@H]3CCC(=O)N[C@@H](CCCNC(=N)N)C(=O)NCC(=O)N[C@@H](CC(=O)O)C(=O)N[C@@H](C4CCCCC4)C(=O)N3)C(N)=O)c3ccc4ccccc4c3C2(C)C)C(C)(C)c2c1ccc1ccccc21", "note": "[L4-Cy5.5]", "values": [{"measurement": "Binding / intracellular uptake in control cells", "setting": "αvβ6- OV-MZ-6 cells", "value": "did not bind"}, {"measurement": "IC50", "setting": "human α5β1-integrin", "value": "> 1000", "unit": "nM"}]}, {"molecule": "COc1ccnc(NCCCOc2ccc(C[C@@H](CC(=O)O)NC(=O)c3ccc(OCCCNC(=O)CCCCCNC(=O)CCCCC[N+]4=C(/C=C/C=C/C=C5/N(C)c6ccc7ccccc7c6C5(C)C)C(C)(C)c5c4ccc4ccccc54)cc3)cc2)c1", "note": "[L1-Cy5.5]", "values": [{"measurement": "Binding / intracellular uptake in control cells", "setting": "αvβ6- OV-MZ-6 cells", "value": "only minor intracellular traces"}, {"measurement": "IC50", "setting": "human α5β1-integrin; [6]", "value": "> 1000", "unit": "nM"}, {"measurement": "IC50", "setting": "human αvβ6-integrin [1]", "value": "> 1000", "unit": "nM"}, {"measurement": "IC50", "setting": "human αvβ3-integrin", "value": "1.02 ± 0.02", "unit": "nM"}]}, {"molecule": "cyclo(RGD[dF][NMeV])", "note": "[cilengitide, c(RGDf(NMe)V) (L2)]", "values": [{"measurement": "p-FAK level by Western blot in OV-MZ-6 cells (low αvβ3, α5β1+) with 1 nM cilengitide, 5 to 60 min", "setting": "[4]", "value": 2.2, "unit": "fold"}]}, {"molecule": "cyclo(RGD[Chg][isoE]) (not fully specified (C-terminus); printed as c(RGD-Chg-isoE)-CONH2; also: Cy5.5 attached via Ahx linker, site not given here)", "note": "[L4-Cy5.5, the Cy5.5 conjugate of c(RGD-Chg-isoE)-CONH2 (L4)]", "values": [{"measurement": "IC50", "setting": "human αvβ6-integrin [5]", "value": "7.63 ± 0.83", "unit": "nM"}]}]}
